Measured values: ChEMBL document CHEMBL1155122, “Design and optimization of aniline-substituted tetrahydroquinoline C5a receptor antagonists” (Bioorg Med Chem Lett, 2008)

How the values were obtained:
[1] = target: T1, C5a anaphylatoxin chemotactic receptor 1 (Homo sapiens, UniProt P21730); test: Antagonist activity at human recombinant C5a receptor in U937 cells assessed as inhibition of C5a-induced calcium mobilization by FLIPR assay; format: functional, cell-based, U-937
T1 sequence (P21730 whole entry): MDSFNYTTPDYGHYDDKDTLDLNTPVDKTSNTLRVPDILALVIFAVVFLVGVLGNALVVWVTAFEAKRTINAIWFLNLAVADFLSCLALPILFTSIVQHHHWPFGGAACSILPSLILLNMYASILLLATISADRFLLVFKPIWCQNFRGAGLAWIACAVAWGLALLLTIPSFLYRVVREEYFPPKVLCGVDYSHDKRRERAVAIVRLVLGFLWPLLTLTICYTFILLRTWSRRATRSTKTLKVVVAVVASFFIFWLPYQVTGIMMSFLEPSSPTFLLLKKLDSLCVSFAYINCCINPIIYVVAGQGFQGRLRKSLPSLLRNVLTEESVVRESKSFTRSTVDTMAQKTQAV

[2] = target: T1, C5a anaphylatoxin chemotactic receptor 1; test: Displacement of [125I]C5a from human recombinant C5a receptor in U937 cells; format: cell-based, U-937
[3] = Half life in rat at 10 mg/kg, po; format: ADME, organism-based; set-up: dose 10 mg/kg, route oral; conditions: in vivo
[4] = Volume of distribution at steady state in rat at 2 mg/kg, iv; format: ADME, organism-based; set-up: dose 2 mg/kg, route intravenous; conditions: in vivo, read-out: Vdss
[5] = Oral bioavailability in rat at 10 mg/kg; format: ADME, organism-based; conditions: in vivo
[6] = system: Rattus norvegicus; test: Cmax in rat at 10 mg/kg, po; format: ADME, organism-based; set-up: dose 10 mg/kg, route oral; conditions: in vivo
[7] = Half life in rat at 2 mg/kg, iv; format: ADME, organism-based; set-up: dose 2 mg/kg, route intravenous; conditions: in vivo
[8] = Clearance in rat at 2 mg/kg, iv; format: ADME, organism-based; set-up: dose 2 mg/kg, route intravenous; conditions: in vivo
[9] = system: Rattus norvegicus; test: AUC in rat at 10 mg/kg, po; format: ADME, organism-based, Plasma; set-up: dose 10 mg/kg, route oral; conditions: in vivo

Compound | IC50 [1] [nM] | other results
CCc1cccc(CC)c1-c1cc(OC)c2c(n1)CCCC2Nc1cc(F)ccc1C (stereo unspecified) | 1400 | 
CCc1cccc(CC)c1-c1cc(OC)c2c(n1)CCCC2Nc1cc(-c2ccccc2)ccc1C (stereo unspecified) | 2500 | 
CCc1cccc(CC)c1-c1cc(OC)c2c(n1)CCCC2Nc1cc(OC)ccc1-c1ccccc1 (stereo unspecified) | > 10000 | 
CCc1cccc(CC)c1-c1cc(OC)c2c(n1)CCCC2Nc1cc(O)ccc1C (stereo unspecified) | > 10000 | 
CCc1cccc(CC)c1-c1cc(OC)c2c(n1)CCCC2Nc1ccc(OC)cc1C (stereo unspecified) | 2400 | 
CCc1cccc(CC)c1-c1cc(OC)c2c(n1)CCCC2Nc1ccccc1CCO (stereo unspecified) |  | Ki [2]: 21 nM
CCc1cccc(CC)c1-c1cc(OC)c2c(n1)CCCC2Nc1ccccc1C(C)=O (stereo unspecified) | > 10000 | 
CCc1cccc(CC)c1-c1cc(OC)c2c(n1)CCCC2Nc1ccccc1C(=O)OC (stereo unspecified) | > 10000 | 
CCc1cccc(CC)c1-c1cc(OC)c2c(n1)CCCC2Nc1cc(OC)ccc1C (stereo unspecified) | 140 | half-life [3]: 5.3 h; Vd [4]: 4.5 L/kg; bioavailability [5]: 21%; Cmax [6]: 290 ng/mL; half-life [7]: 6.3 h; clearance [8]: 21 mL/min/kg; AUC [9]: 700 ng·h/mL
CCc1cccc(CC)c1-c1cc(OC)c2c(n1)CCCC2Nc1ccccc1CO (stereo unspecified) | 120 | 
CCc1cccc(CC)c1-c1cc(OC)c2c(n1)CCCC2Nc1cc(C)ccc1C (stereo unspecified) | 430 | 
CCc1cccc(CC)c1-c1cc(OC)c2c(n1)CCCC2Nc1cc(CO)ccc1C (stereo unspecified) | > 10000 | 
CCc1cccc(CC)c1-c1cc(OC)c2c(n1)CCCC2Nc1ccccc1C(N)=O (stereo unspecified) | > 10000 | 
CCc1cccc(CC)c1-c1cc(OC(C)C)c2c(n1)CCCC2Nc1ccccc1CCO (racemic) | 7 | 
CCc1cccc(CC)c1-c1cc(OC)c2c(n1)CCCC2N(C)c1cc(OC)ccc1OC (racemic) | 2600 | 
COc1cc(-c2c(C)cccc2C)nc2c1C(N(C)c1c(C)cccc1C)CCC2 (racemic) | > 10000 | 
COc1cccc(N(C)C2CCCc3nc(-c4c(C)cccc4C)cc(OC)c32)c1C (racemic) | > 10000 | 
CCc1cccc(CC)c1-c1cc(OC)c2c(n1)CCCC2N(C)c1cc(-c2ccccc2)ccc1C (racemic) | > 10000 | 
CCc1cccc(CC)c1-c1cc(OC)c2c(n1)CCCC2N(C)c1cc(Cl)ccc1C (racemic) | 2600 | 
